Counter-ions that a name gives are not always drawn.
Test system: depressant effects induced in mice by tetrabenazine
Experiment: Blocking of the depressant effects induced in mice by intravenous tetrabenazine (modified Englehardt procedure)
Assay type: in vivo
Settings: Mus musculus, IP
Protocol: The activity of the compounds was determined by their effectiveness in blocking the depressant effects which are induced in mice by the intravenous administration of 2-oxo-3-isobutyl-9,10-dimethoxy-1,2,3,4,6,7-hexahydro-11bh-benzo[a] quinolizine (tetrabenazine). The procedure used was a modification of Englehardt, E. L. et al, J. Med. Chem. 11 (2), 325(1968). The ED50 values of the compounds are given in Table I; the compounds of Examples 3, 5, 7 and 8 are the preferred compounds.

Structure (SMILES)	ED50 [mg/kg]
CN(C)CCC(O)(c1cccc(Cl)c1)C1CC1 (centres unmarked) [Example 3, 1-Cyclopropyl-3-dimethylamino-1-(3-chlorophenyl)-1-propanol Hydrochloride]	6.4
COc1ccc(C(O)(CCN(C)C)C2CC2)cc1 (centres unmarked) [Example 4, 1-Cyclopropyl-3-dimethylamino-1-(4-methoxyphenyl)-1-propanol Hydrobromide]	7.8
CCN(CC)CCC(O)(c1cccc(C(F)(F)F)c1)C1CC1 (centres unmarked) [Example 7, 1-Cyclopropyl-3-diethylamino-1-(3-trifluoromethylphenyl)-1-propanol Hydrochloride]	4.2
CN(C)CCC(O)(c1ccccc1)C1CC1 (centres unmarked) [Example 1, 1-Cyclopropyl-3-dimethylamino-1-phenyl-1-propanol Hydrochloride]	10
CN(C)CCC(O)(c1ccc(C(F)(F)F)cc1)C1CC1 (centres unmarked) [Example 6, 1-Cyclopropyl-3-dimethylamino-1-(4-trifluoromethylphenyl)-1-propanol Hydrochloride]	12
CN(C)CCC(O)(c1cccc(C(F)(F)F)c1)C1CC1 (centres unmarked) [Example 5, 1-Cyclopropyl-3-dimethylamino-1-(3-trifluoromethylphenyl)-1-propanol Hydrochloride]	2.5
CNCCC(O)(c1cccc(C(F)(F)F)c1)C1CC1 (centres unmarked) [Example 8, 1-Cyclopropyl-3-methylamino-1-(3-trifluoromethylphenyl)-1-propanol]	4.6
CN(C)CCCC(O)(c1ccccc1)C1CC1 (centres unmarked) [Example 2, 1-Cyclopropyl-4-dimethylamino-1-phenyl-1-butanol Hydrochloride]	12.5
